Experiments:
Assay type in all cases: cell-based, human
HepG2 cells = assay: LDL uptake assay (fluorescent DiI-LDL method); conditions: for LDL UPTAKE % STIMULATION: HepG2
Method: LDL uptake in HepG2 cells cultured in 12 well plates (Costar) at 2 X 10^5 per well was assayed by the fluorescent LDL method using a fluorescence microscope and video camera (SIT 66) attached to computer (Laser 25) with JAVA image analysis software (Jandel Scientific, CA) as previously reported (Grove, et al.,). […] Specifically, 2 ug/ml Dil-LDL in serum free media was added to HepG2 monolayers for two hours. The monolayers were washed 3 times to remove free Dil-LDL and fixed with 4% formalin in phosphate-buffered saline. Accumulated fluorescence was measured by quantitating the average intensity of 25 - 50 cells. Three difference fields in each of duplicate or triplicate monolayers were quantitated and averaged. The amount of LDL protein taken up was determined as follows. Unfixed cell monolayers were solubilized with 0.1% sodium dodecyl sulfate, transferred into glass tubes, and the lipids (and Dil) were extracted into chloroform using the Bligh-Dyer extraction procedure. Fluorescence in the chloroform layer was quantitated with a fluorescence spectrophotometer (Perkin-Elmer) and compared with a standard curve generated by extracting Dil from known quantities of Dil-LDL. Coomassie blue kits (Pierce) were used to estimate cell proteins.

[1] = system: tyrosine phosphorylation in HepG2 proteins; assay: Phosphotyrosine proteins (antiphosphotyrosine immunoblot)
Method: HepG2 cells were plated into six well plates at 4 x 10^5 cells/well. After 48 hours (about 70% confluency), the cells were incubated with Oncostatin M or drugs for the indicated time, rapidly washed once with ice cold PBS, and lysed with 100ul of SDS-sample buffer containing 1 mM mercaptoethanol and 500 uM sodium vanadate. The bufer was rapidly mixed over the entire well before being removed and heated to 100° C for 15 minutes. The samples (25 ul) were separated by SDS-PAGE on 10-20% gradient gels and […] to Hybond C Extra membranes (Amersham). […] Proteins containing phosphotyrosine were detected using an affinity purified rabbit antiphosphotyrosine antibody followed by ['^251]-labeled protein A (ICN).

diacylglycerol = assay: Lipid analysis: diacylglycerol levels ([3H]-glycerol labelling, TLC); conditions: genistein
Method: Lipids from cells radiolabeled with [^32P]-orthophosphate or with (^3H]-glycerol were extracted by a modification of the method of Bligh and Dyer. Extracts, dried under a stream of nitrogen, were solublized with 100 ul of chloroform and spotted on thin-layer chromatography (TLC) plates (Silica Gel 60, Merck). The phospholipids were resolved either with a solvent system designed to separate the inositides (propanol: 4.3 M ammonium hydroxide, 65:35 v/v) or with a system designed to separate phosphatidylcholine and phosphatidylethanolamine (chloroform:methanol:acetic acid:water (50:35:8:1, v/v). Neutral lipids were resolved in a tank containing benzene:ethyl acetate (80:20, v/v). The radiolabeled phospholipids were identified as spots on autoradiographs which comigrated with authentic standards (detected with iodine vapors), were scraped into scintillation vials, and were quantitated in a scintillation counter. Neutral lipid standards (diacylglycerol and triacylglycerol) which were added to the [^3H)- glycerol labeled lipid extracts before chromatography were identified with iodine vapors, scraped into scintillation vials, and analyzed as outlined above.

What does the source list for `CCCCCCCCCCCCCC(=O)O[C@@H]1[C@@H](C)[C@@]2(O)[C@@H](C=C(CO)C[C@]3(O)C(=O)C(C)=C[C@@H]23)[C@@H]2C(C)(C)[C@]12OC(C)=O` [PMA, phorbol 12-myristate 13-acetate]?
LDL uptake (HepG2 cells; PMA 10 nM, 4 hours, time dependency similar to Oncostatin M): induced LDL uptake; effect on the inhibition of LDLR expression with genistein (HepG2 cells; PMA 50 nM added to genistein-inhibited HepG2 cells): reversed

Which results are given for `O=c1c(-c2ccc(O)cc2)coc2cc(O)cc(O)c12` [Genistein]?
effect on Oncostatin M-induced tyrosine phosphorylation ([1]; genistein 30 ug/ml, 30 minutes before Oncostatin M (100 ng/ml, 10 minutes)): mitigated; effect on Oncostatin M-induced elevations in diacylglycerol (diacylglycerol): inhibited; LDL UPTAKE % STIMULATION (HepG2 cells): -10%; effect on Oncostatin M-induced elevations in LDLR activity (HepG2 cells; genistein): inhibited

With `CC1CNCCN1S(=O)(=O)c1cccc2cnccc12` (stereo not drawn) [H-7] as the compound, how does the “effect on increase in LDL uptake induced by Oncostatin M” value (HepG2 cells; 10 ug/ml H-7 for 30 min, then 4 hours Oncostatin M (100 ng/ml)) read?
Its value is “prevented the increases in LDL uptake”.

What about the “effect on increase in LDL uptake induced by PMA” value (HepG2 cells; 10 ug/ml H-7 for 30 min, then 4 hours PMA (10 nM)) of the same compound?
The value was “prevented the increases in LDL uptake”.

Which “TYROSINE PHOSHORYLATION” value ([1]; HepG2, grades - to + + + + +, legend not given) does the source give for vanadate here?
The value was “+ + +”.

And the “effect on tyrosine kinase stimulation by Oncostatin M” value ([1]; vanadate with Oncostatin M)?
The value was “synergistically enhance”.

What about the “LDL UPTAKE % STIMULATION” value (HepG2 cells) of the same compound?
Its value is 6%.

And the “effect on LDLR expression stimulation by Oncostatin M” value (HepG2 cells; vanadate with Oncostatin M)?
The value was “synergistically enhance”.
